In patent EP0013144A1, “Substituted diphenylamine derivatives, compositions and herbicidal uses thereof, and processes for their preparation” (ICI AUSTRALIA LIMITED, priority 1978, dated 1980):

Experiments:
Assay type in all cases: in vivo
[1] = system: Wheat; experiment: Pre-emergence herbicidal activity (Example 31); set-up: key: 0-3 scale: 0 = 0-25% damage, 3 = 75-99% kill, 3+ = 100% kill; settings: after three weeks
Method in brief: (§1)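 Glasshouse test: sown seed boxes sprayed pre-emergence with diluted formulation, unsprayed boxes as reference. Visual damage scored 0–3+ after 3 weeks.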

[2] = system: Ryegrass; experiment: Pre-emergence herbicidal activity (Example 31); set-up: key: 0-3 scale: 0 = 0-25% damage, 3 = 75-99% kill, 3+ = 100% kill; settings: after three weeks
Method in brief: as §1

[3] = system: Japanese millet; experiment: Post-emergence herbicidal activity (Example 32); settings: 3 weeks after spraying
Method in brief: (§2)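 Visual damage rating, 0 to 3 (0 = 0–25% damage, 3 = 75–99% kill, 3+ = 100% kill), taken 3 weeks post-spray versus untreated boxes. Plants were sown 2 cm deep in seed boxes, glasshouse-grown and sub-irrigated. They were treated at 10–12.5 cm height with water-diluted formulations.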

[4] = system: Ryegrass; experiment: Post-emergence herbicidal activity (Example 32); settings: 3 weeks after spraying
Method in brief: as §2

[5] = system: Wild Oats; experiment: Post-emergence herbicidal activity (Example 32); settings: 3 weeks after spraying
Method in brief: as §2

[6] = system: Ipomea; experiment: Post-emergence herbicidal activity (Example 32); settings: 3 weeks after spraying
Method in brief: as §2

[7] = system: Wheat; experiment: Post-emergence herbicidal activity (Example 32); set-up: key: 0-3 scale: 0 = 0-25% damage, 3 = 75-99% kill, 3+ = 100% kill; settings: 3 weeks after spraying
Method in brief: as §2

[8] = system: Cotton (Deltapine); experiment: Selective herbicidal activity, young pot plants (Example 35); settings: crop; post-emergence; 0.08 kg/ha; after 20 days; mean of triplicate
Protocol: (§3) The compounds were formulated for test by mixing an appropriate amount with 5 ml of an emulsion prepared by diluting 160 ml of a solution containing 21.8 g per litre of "Span" 80 and 78.2 g per litre of "Tween" 20 in methylcyclohexanone to 500 ml with water. "Span" 80 is a Trade Mark for a surface-active agent comprising sorbitan monolaurate. "Tween" 20 is a Trade Mark for a surface-active agent comprising a condensate of sorbitan monolaurate with 20 molar proportions of ethylene oxide. Each 5 ml emulsion containing a test compound was then diluted to 40 ml with water and sprayed on to young pot plants (post-emergence test) of the species named in Table 7 below. Damage to test plants was assessed after 20 days on a scale of 0 to 9 whereo 0 is 0 to 10% and 9 is 90 to 100% kill. The tests were carried out in triplicate and the mean results are recorded in Table 7 below.

[9] = system: Soyabean (Amsoy); experiment: as above; settings: crop; post-emergence; 0.08 kg/ha; after 20 days; mean of triplicate
Protocol: as §3

[10] = system: Echinochloa crus-galli; experiment: as above; settings: weed; post-emergence; 0.08 kg/ha; after 20 days; mean of triplicate
Protocol: as §3

[11] = system: Digitaria sanguinalis; experiment: as above; settings: weed; post-emergence; 0.08 kg/ha; after 20 days; mean of triplicate
Protocol: as §3

[12] = system: Setaria viridis; experiment: as above; settings: weed; post-emergence; 0.08 kg/ha; after 20 days; mean of triplicate
Protocol: as §3

[13] = system: Sorghum halepense; experiment: as above; settings: weed; post-emergence; 0.08 kg/ha; after 20 days; mean of triplicate
Protocol: as §3

[14] = system: Japanese millet; experiment: Pre-emergence herbicidal activity (Example 31); settings: after three weeks
Method in brief: as §1

[15] = system: Wild Oats; experiment: Pre-emergence herbicidal activity (Example 31); settings: after three weeks
Method in brief: as §1

[16] = system: Mustard; experiment: Pre-emergence herbicidal activity (Example 31); settings: after three weeks
Method in brief: as §1

[17] = system: Sunflower; experiment: Pre-emergence herbicidal activity (Example 31); settings: after three weeks
Method in brief: as §1

[18] = system: Ipomea; experiment: Pre-emergence herbicidal activity (Example 31); settings: after three weeks
Method in brief: as §1

[19] = system: Cotton; experiment: Selective herbicidal activity, seed boxes (Example 34); settings: crop; 1.5 kg/ha; sprayed on one week old seedlings; 29 days after spraying; triplicate
Source text: (§4) The seeds of the test species were sprinkled onto . the surface of soil in seed boxes and covered with a thin layer of sand. The boxes were lightly watered with an overhead spray and placed in a glasshouse for one week to permit germination of the seeds and plant growth to a height of 4 to 5 inches. […] For comparison purposes at least one box containing one week old seedlings was sprayed lightly with water only. After spraying the boxes were returned to the glasshouse for a further 29 days after which the effect of the treatment was visually assessed.

[20] = system: Japanese millet; experiment: as above; settings: weed; 0.15 kg/ha; sprayed on one week old seedlings; 29 days after spraying; triplicate
Source text: as §4

[21] = system: Soyabean; experiment: as above; settings: crop; 1.5 kg/ha; sprayed on one week old seedlings; 29 days after spraying; triplicate
Source text: as §4

[22] = system: Setaria aviceps; experiment: as above; settings: weed; 0.15 kg/ha; sprayed on one week old seedlings; 29 days after spraying; triplicate
Source text: as §4

[23] = system: Annual Rye Grass; experiment: as above; settings: weed; 0.15 kg/ha; sprayed on one week old seedlings; 29 days after spraying; triplicate
Source text: as §4

[24] = system: Wild Oats; experiment: as above; settings: weed; 0.15 kg/ha; sprayed on one week old seedlings; 29 days after spraying; triplicate
Source text: as §4

[25] = system: Sorghum halepense; experiment: as above; settings: weed; 0.15 kg/ha; sprayed on one week old seedlings; 29 days after spraying; triplicate
Source text: as §4

[26] = system: Sunflower; experiment: Post-emergence herbicidal activity (Example 32); settings: 3 weeks after spraying
Method in brief: as §2

COC(=O)C(C)Oc1ccc(Nc2ccc(C(F)(F)F)cc2[N+](=O)[O-])cc1 (centres unmarked) [Compound 21, Methyl 2-[4-(2-nitro-4-trifluoromethylanilino)phenoxy]-propionate]
damage to plants, Wh ([1]; 1 kg/ha): 2
damage to plants, Rg ([2]; 0.5 kg/ha): 3+ (3+ represents 100% kill)
damage to plants, Rg ([2]; 1 kg/ha): 3+ (3+ represents 100% kill)
damage to plants, Rg ([2]; 5 kg/ha): 3+ (3+ represents 100% kill)
damage to plants, Jm ([3]; 1 kg/ha): 3+ (3+ represents 100% kill)
damage to plants, Jm ([3]; 5 kg/ha): 3+ (3+ represents 100% kill)
damage to plants, Rg ([4]; 1 kg/ha): 3+ (3+ represents 100% kill)
damage to plants, Rg ([4]; 5 kg/ha): 3+ (3+ represents 100% kill)
damage to plants, Ot ([5]; 1 kg/ha): 3 (3 represents 75 to 99% kill)
damage to plants, Ot ([5]; 5 kg/ha): 3+ (3+ represents 100% kill)
damage to plants, Ip ([6]; 1 kg/ha): 0 (0 represents 0 to 25% damage)
damage to plants, Ip ([6]; 5 kg/ha): 2
damage to plants, Wh ([7]; 1 kg/ha): 3 (3 represents 75 to 99% kill)
damage to plants, Wh ([7]; 5 kg/ha): 3+ (3+ represents 100% kill)
damage to test plants, Ct [8]: 0 (0 is 0 to 10%)
damage to test plants, Sy [9]: 0 (0 is 0 to 10%)
damage to test plants, Ec [10]: 5
damage to test plants, Dg [11]: 5
damage to test plants, St [12]: 8
damage to test plants, Sh [13]: 9 (9 is 90 to 100% kill)
damage to plants, Jm ([14]; 0.5 kg/ha): 3+ (3+ represents 100% kill)
damage to plants, Jm ([14]; 1 kg/ha): 3+ (3+ represents 100% kill)
damage to plants, Jm ([14]; 5 kg/ha): 3+ (3+ represents 100% kill)
damage to plants, Ot ([15]; 0.5 kg/ha): 3 (3 represents 75 to 99% kill)
damage to plants, Ot ([15]; 1 kg/ha): 3+ (3+ represents 100% kill)
damage to plants, Ot ([15]; 5 kg/ha): 3+ (3+ represents 100% kill)
damage to plants, Ms ([16]; 0.5 kg/ha): 0 (0 represents from 0 to 25% damage)
damage to plants, Ms ([16]; 1 kg/ha): 0 (0 represents from 0 to 25% damage)
damage to plants, Ms ([16]; 5 kg/ha): 0 (0 represents from 0 to 25% damage)
damage to plants, Sf ([17]; 0.5 kg/ha): 0 (0 represents from 0 to 25% damage)
damage to plants, Sf ([17]; 1 kg/ha): 0 (0 represents from 0 to 25% damage)
damage to plants, Sf ([17]; 5 kg/ha): 0 (0 represents from 0 to 25% damage)
damage to plants, Ip ([18]; 0.5 kg/ha): 0 (0 represents from 0 to 25% damage)
damage to plants, Ip ([18]; 1 kg/ha): 0 (0 represents from 0 to 25% damage)
damage to plants, Ip ([18]; 5 kg/ha): 0 (0 represents from 0 to 25% damage)

CC(Oc1ccc(Nc2ccc(C(F)(F)F)cc2[N+](=O)[O-])cc1)C(=O)O (centres unmarked) [Compound 46, 2[4-(2-Nitro-4-trifluoromethylanilino)phenoxy]-propionic acid]
percentage damage, Ct [19]: 50 percentage
percentage damage, Jm [20]: 85 percentage
percentage damage, Sb [21]: 38 percentage
percentage damage, St [22]: 55 percentage
percentage damage, Rg [23]: 55 percentage
percentage damage, Ot [24]: 50 percentage
percentage damage, Sh [25]: 88 percentage
damage to plants, Wh ([1]; 1 kg/ha): 0 (0 represents from 0 to 25% damage)
damage to plants, Wh ([1]; 5 kg/ha): 2
damage to plants, Rg ([2]; 1 kg/ha): 2
damage to plants, Rg ([2]; 5 kg/ha): 3+ (3+ represents 100% kill)
damage to plants, Jm ([3]; 1 kg/ha): 3+ (3+ represents 100% kill)
damage to plants, Jm ([3]; 5 kg/ha): 3+ (3+ represents 100% kill)
damage to plants, Rg ([4]; 1 kg/ha): 3+ (3+ represents 100% kill)
damage to plants, Rg ([4]; 5 kg/ha): 3+ (3+ represents 100% kill)
damage to plants, Sf ([26]; 1 kg/ha): 0 (0 represents 0 to 25% damage)
damage to plants, Sf ([26]; 5 kg/ha): 2
damage to plants, Ip ([6]; 1 kg/ha): 0 (0 represents 0 to 25% damage)
damage to plants, Ip ([6]; 5 kg/ha): 0 (0 represents 0 to 25% damage)
damage to plants, Wh ([7]; 1 kg/ha): 2
damage to plants, Wh ([7]; 5 kg/ha): 3+ (3+ represents 100% kill)
damage to plants, Jm ([14]; 1 kg/ha): 3 (3 represents 75 to 99% kill)
damage to plants, Jm ([14]; 5 kg/ha): 3+ (3+ represents 100% kill)
damage to plants, Ms ([16]; 1 kg/ha): 0 (0 represents from 0 to 25% damage)
damage to plants, Ms ([16]; 5 kg/ha): 0 (0 represents from 0 to 25% damage)
damage to plants, Sf ([17]; 1 kg/ha): 0 (0 represents from 0 to 25% damage)
damage to plants, Sf ([17]; 5 kg/ha): 0 (0 represents from 0 to 25% damage)
damage to plants, Ip ([18]; 1 kg/ha): 0 (0 represents from 0 to 25% damage)
damage to plants, Ip ([18]; 5 kg/ha): 0 (0 represents from 0 to 25% damage)

CC(Oc1ccc(Nc2ccc(C(F)(F)F)cc2[N+](=O)[O-])cc1)C(=O)[O-].[Na+] (centres unmarked) [Compound 65, 2-[4-(2-Nitro-4-trifluoromethylanilino)phenoxy]-propionic acid sodium salt]
percentage damage, Ct [19]: 0 percentage
percentage damage, Jm [20]: 100 percentage
percentage damage, Sb [21]: 0 percentage
percentage damage, St [22]: 50 percentage
percentage damage, Rg [23]: 35 percentage
percentage damage, Ot [24]: 58 percentage
percentage damage, Sh [25]: 80 percentage
damage to test plants, Ct [8]: 0 (0 is 0 to 10%)
damage to test plants, Sy [9]: 0 (0 is 0 to 10%)
damage to test plants, Ec [10]: 9 (9 is 90 to 100% kill)
damage to test plants, Dg [11]: 3
damage to test plants, St [12]: 2
damage to test plants, Sh [13]: 8
